Patent US6686355B2, “Biphenyl sulfonamides useful as matrix metalloproteinase inhibitors” (Warner-Lambert Company, priority 2001, dated 2004)

Assays:
Type in all cases: biochemical
[1] = target: T1, MMP-2FL (full length Gelatinase A) (Homo sapiens, UniProt P08253); assay: Thiopeptolide hydrolysis assay, MMP-2FL; details: thiopeptolide substrate, HEPES pH 7.0, 22° C.
T1 sequence (P08253 110-660): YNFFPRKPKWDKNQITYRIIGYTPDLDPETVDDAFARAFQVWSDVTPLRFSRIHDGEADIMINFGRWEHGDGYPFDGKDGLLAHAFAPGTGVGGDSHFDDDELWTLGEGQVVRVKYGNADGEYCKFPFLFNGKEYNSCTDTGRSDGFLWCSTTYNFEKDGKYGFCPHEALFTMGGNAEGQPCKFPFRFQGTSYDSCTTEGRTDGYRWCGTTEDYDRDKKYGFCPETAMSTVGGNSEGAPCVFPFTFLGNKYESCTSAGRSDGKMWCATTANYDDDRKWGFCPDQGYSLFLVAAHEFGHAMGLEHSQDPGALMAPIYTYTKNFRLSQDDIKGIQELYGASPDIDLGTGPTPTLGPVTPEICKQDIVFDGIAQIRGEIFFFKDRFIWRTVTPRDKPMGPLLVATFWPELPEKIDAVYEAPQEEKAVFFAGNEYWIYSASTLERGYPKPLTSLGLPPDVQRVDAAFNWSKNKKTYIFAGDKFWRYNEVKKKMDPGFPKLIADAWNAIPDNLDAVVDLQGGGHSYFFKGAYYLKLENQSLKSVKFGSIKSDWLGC
Excerpt: (§1) The assays measure the amount by which a test compound reduces the hydrolysis of a thiopeptolide substrate catalyzed by a matrix metalloproteinase enzyme. Such assays are described in detail by Ye et al., in Biochemistry, 1992;31(45):11231-11235, which is incorporated herein by reference.
(§2) Thiopeptolide substrates show virtually no decomposition or hydrolysis at or below neutral pH in the absence of a matrix metalloproteinase enzyme. A typical thiopeptolide substrate commonly utilized for assays is Ac-Pro-Leu-Gly-thioester-Leu-Leu-Gly-OEt. A 100 μL assay mixture will contain 50 mM of N-2-hydroxyethylpiperazine-N′-2-ethanesulfonic acid buffer (“HEPES”) at pH 7.0, 10 mM CaCl2, 100 μM thiopeptolide substrate, and 1 mM 5,5″-dithio-bis-(2-nitro-benzoic acid) (DTNB). The thiopeptolide substrate concentration may be varied from, for example, 10 to 800 μM to obtain Km and Kcat values. The change in absorbance at 405 nm is monitored on a Thermo Max microplate reader (Molecular Devices, Menlo Park, Calif.) at room temperature (22° C.). The calculation of the amount of hydrolysis of the thiopeptolide substrate is based on E412=13600 M^−1 cm^−1 for the DTNB-derived product 3-carboxy4-nitrothiophenoxide. Assays are carried out with and without matrix metalloproteinase inhibitor compounds, and the amount of hydrolysis is compared for a determination of inhibitory activity of the test compounds.
(§3) Several representative compounds have been evaluated for their ability to inhibit various matrix metalloproteinase enzymes. In Table I, MMP-1FL refers to full length interstitial collagenase; MMP-2FL refers to full length Gelatinase A; MMP-3CD refers to the catalytic domain of stromelysin-1; MMP-7FL refers to full length matrilysin; MMP-9FL refers to full length Gelatinase B; MMP-13CD refers to the catalytic domain of collagenase 3; and MMP-14CD refers to the catalytic domain of MMP-14. Test compounds were evaluated at various concentrations in order to determine their respective IC50 values, the micromolar concentration of compound required to cause a 50% inhibition of the catalytic activity of the respective enzyme.

[2] = target: MMP-3CD (catalytic domain of stromelysin-1) (Homo sapiens, UniProt P08254); assay: Thiopeptolide hydrolysis assay, MMP-3CD; details: thiopeptolide substrate, MES pH 6.0
Excerpt: as §1, §2, §3
It should be appreciated that the assay buffer used with MMP-3CD was 50 mM of 2-morpholinoethanesulfonic acid monohydrate (“MES”) at pH 6.0 rather than the HEPES buffer at pH 7.0 described above.

[3] = target: MMP-9FL (full length Gelatinase B) (Homo sapiens, UniProt P14780); assay: Thiopeptolide hydrolysis assay, MMP-9FL; details: thiopeptolide substrate, HEPES pH 7.0, 22° C.
Excerpt: as §1, §2, §3

[4] = target: MMP-13CD (catalytic domain of collagenase 3) (Homo sapiens, UniProt P45452); assay: Thiopeptolide hydrolysis assay, MMP-13CD; details: thiopeptolide substrate, HEPES pH 7.0, 22° C.
Excerpt: as §1, §2, §3

Sequence of MMP-9FL (full length Gelatinase B) (P14780 94-707, species assumed): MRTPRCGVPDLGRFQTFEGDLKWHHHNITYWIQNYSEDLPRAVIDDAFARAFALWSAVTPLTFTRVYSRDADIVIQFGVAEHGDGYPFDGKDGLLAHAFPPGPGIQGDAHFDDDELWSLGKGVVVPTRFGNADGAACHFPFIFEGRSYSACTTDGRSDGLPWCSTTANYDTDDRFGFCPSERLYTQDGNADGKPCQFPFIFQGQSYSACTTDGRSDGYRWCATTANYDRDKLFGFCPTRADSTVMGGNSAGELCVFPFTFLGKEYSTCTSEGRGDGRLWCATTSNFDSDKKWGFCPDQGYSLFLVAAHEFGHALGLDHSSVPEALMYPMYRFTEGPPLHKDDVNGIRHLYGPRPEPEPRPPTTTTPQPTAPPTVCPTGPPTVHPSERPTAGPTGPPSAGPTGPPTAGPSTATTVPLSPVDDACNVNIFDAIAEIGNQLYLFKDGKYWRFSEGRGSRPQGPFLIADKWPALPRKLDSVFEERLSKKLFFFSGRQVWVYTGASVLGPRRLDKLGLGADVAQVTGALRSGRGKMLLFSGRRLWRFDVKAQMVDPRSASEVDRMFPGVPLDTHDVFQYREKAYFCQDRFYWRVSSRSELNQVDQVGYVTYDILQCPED
Sequence of MMP-3CD (catalytic domain of stromelysin-1) (P08254 100-272 limits assumed): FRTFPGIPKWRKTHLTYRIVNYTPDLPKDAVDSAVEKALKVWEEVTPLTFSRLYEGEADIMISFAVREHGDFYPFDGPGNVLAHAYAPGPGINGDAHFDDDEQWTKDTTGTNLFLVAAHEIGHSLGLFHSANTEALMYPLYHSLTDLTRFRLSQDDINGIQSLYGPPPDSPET

IC50 [1] [µM] | IC50 [2] [µM] | IC50 [3] [µM] | IC50 [4] [µM] | Compound
> 100 | > 100 | > 100 | > 100 | CC1(C)SCCN(S(=O)(=O)c2ccc(-c3cccc([N+](=O)[O-])c3)cc2)[C@H]1C(=O)O [Example 27, (S)-2,2-Dimethyl-4-(3′-nitro-biphenyl-4-sulfonyl)-thiomorpholine-3-carboxylic acid]
2.07 | 2.2 | 22.8 | 2.67 | CC1(C)SCCN(S(=O)(=O)c2ccc(-c3cccc4ccccc34)cc2)[C@H]1C(=O)O [Example 28, (S)-2,2-Dimethyl-4-(4-naphthalen-1-yl-benzenesulfonyl)-thiomorpholine-3-carboxylic acid]
> 100 | > 100 | > 100 | > 100 | CC1(C)SCCN(S(=O)(=O)c2ccc(-c3ccc(Cl)cc3)cc2)[C@H]1C(=O)O [Example 29, (S)-4-(4′-Chloro-biphenyl-4-sulfonyl)-2,2-dimethyl-thiomorpholine-3-carboxylic acid]
0.042 | 0.0154 | 3.6 | 0.096 | CC1(C)SCCN(S(=O)(=O)c2ccc(-c3ccc(C=O)cc3)cc2)[C@H]1C(=O)O [Example 30, (S)-4-(4′-Formyl-biphenyl-4-sulfonyl)-2,2-dimethyl-thiomorpholine-3-carboxylic acid]
> 100 | > 100 | 1.57 | > 100 | Cc1cccc(-c2ccc(S(=O)(=O)N3CCSC(C)(C)[C@@H]3C(=O)O)cc2)c1 [Example 31, (S)-2,2-Dimethyl-4-(3′-methyl-biphenyl-4-sulfonyl)-thiomorpholine-3-carboxylic acid]
0.133 | 0.0365 | 4.43 | 0.145 | CC1(C)SCCN(S(=O)(=O)c2ccc(-c3ccc(F)cc3)cc2)[C@H]1C(=O)O [Example 32, (S)-4-(4′-Fluoro-biphenyl-4-sulfonyl)-2,2-dimethyl-thiomorpholine-3-carboxylic acid]
0.0185 | 0.0148 | 3.15 | 0.0443 | CC1(C)SCCN(S(=O)(=O)c2ccc(-c3ccc4c(c3)OCO4)cc2)[C@H]1C(=O)O [Example 33, (S)-4-(4-1,3-Benzodioxol-5-yl-benzenesulfonyl)-2,2-dimethyl-thiomorpholine-3-carboxylic acid]
0.187 | 0.0703 | 10.3 | 0.243 | CC1(C)SCCN(S(=O)(=O)c2ccc(-c3cccc(Cl)c3)cc2)[C@H]1C(=O)O [Example 34, (S)-4-(3′-Chloro-biphenyl-4-sulfonyl)-2,2-dimethyl-thiomorpholine-3-carboxylic acid]
0.035 | 0.0154 | 0.479 | 0.021 | CC1(C)SCCN(S(=O)(=O)c2ccc(-c3cccc(C=O)c3)cc2)[C@H]1C(=O)O [Example 35, (S)-4-(3′-Formyl-biphenyl-4-sulfonyl)-2,2-dimethyl-thiomorpholine-3-carboxylic acid]
0.16 | 0.0289 | 9.15 | 0.113 | CC1(C)SCCN(S(=O)(=O)c2ccc(-c3ccc(F)c(Cl)c3)cc2)[C@H]1C(=O)O [Example 42, (S)-4-(3′-Chloro-4′-fluoro-biphenyl-4-sulfonyl)-2,2-dimethyl-thiomorpholine-3-carboxylic acid]
0.015 | 0.0088 | 0.37 | 0.02 | CC(C)c1ccc(-c2ccc(S(=O)(=O)N3CCSC(C)(C)[C@@H]3C(=O)O)cc2)cc1 [Example 44, (S)-4-(4′-Isopropyl-biphenyl-4-sulfonyl)-2,2-dimethyl-thiomorpholine-3-carboxylic acid]
0.23 | 0.039 | 1.5 | 0.061 | CC(C)(C)c1ccc(-c2ccc(S(=O)(=O)N3CCSC(C)(C)[C@@H]3C(=O)O)cc2)cc1 [Example 49, (S)-4-(4′-tert-Butyl-biphenyl-4-sulfonyl)-2,2-dimethyl-thiomorpholine-3-carboxylic acid]
0.024 | 0.019 | 1.5 | 0.12 | CC1(C)SCCN(S(=O)(=O)c2ccc(-c3ccc(Cl)s3)cc2)[C@H]1C(=O)O [Example 50, (S)-4-[4-(5-Chloro-thiophen-2-yl)-benzenesulfonyl]-2,2-dimethyl-thiomorpholine-3-carboxylic acid]
0.027 | 0.01 | 1 | 0.012 | Cc1cc(-c2ccc(S(=O)(=O)N3CCSC(C)(C)[C@@H]3C(=O)O)cc2)ccc1F [Example 51, (S)-4-(4′-Fluoro-3′-methyl-biphenyl-4-sulfonyl)-2,2-dimethyl-thiomorpholine-3-carboxylic acid]
0.013 | 0.014 | 0.52 | 0.036 | Cc1ccc(-c2ccc(S(=O)(=O)N3CCSC(C)(C)[C@@H]3C(=O)O)cc2)s1 [Example 52, (S)-2,2-Dimethyl-4-[4-(5-methyl-thiophen-2-yl)-benzenesulfonyl]-thiomorpholine-3-carboxylic acid]
8.8 | 8.9 | 59 | 7.7 | COc1cc(-c2ccc(S(=O)(=O)N3CCSC(C)(C)[C@@H]3C(=O)O)cc2)cc(OC)c1OC [Example 55, (S)-2,2-Dimethyl-4-(3′,4′,5′-trimethoxy-biphenyl-4-sulfonyl)-thiomorpholine-3-carboxylic acid]
0.81 | 1.5 | 18 | 1.1 | CC1(C)SCCN(S(=O)(=O)c2ccc(-c3ccc(Cl)cc3Cl)cc2)[C@H]1C(=O)O [Example 56, (S)-4-(2′,4′-Dichloro-biphenyl-4-sulfonyl)-2,2-dimethyl-thiomorpholine-3-carboxylic acid]
0.0088 | 0.0045 | 0.54 | 0.013 | CC1(C)SCCN(S(=O)(=O)c2ccc(-c3ccc(C(F)(F)F)cc3)cc2)[C@H]1C(=O)O [Example 57, (S)-2,2-Dimethyl-4-(4′-trifluoromethyl-biphenyl-4-sulfonyl)-thiomorpholine-3-carboxylic acid]
0.134 | 0.082 | 6.3 | 0.425 | CC1(C)SCCN(S(=O)(=O)c2ccc(-c3cccc(F)c3)cc2)[C@H]1C(=O)O [Example 58, (S)-4-(3′-Fluoro-biphenyl-4-sulfonyl)-2,2-dimethyl-thiomorpholine-3-carboxylic acid]
39 | 9.95 |  | 25.5 | COc1cccc(OC)c1-c1ccc(S(=O)(=O)N2CCSC(C)(C)[C@@H]2C(=O)O)cc1 [Example 60, (S)-4-(2′,6′-Dimethoxy-biphenyl-4-sulfonyl)-2,2-dimethyl-thiomorpholine-3-carboxylic acid]
6.2 | 0.83 |  | 4.9 | CC1(C)SCCN(S(=O)(=O)c2ccc(-c3cccc(C#N)c3)cc2)[C@H]1C(=O)O [Example 62, (S)-4-(3′-Cyano-biphenyl-4-sulfonyl)-2,2-dimethyl-thiomorpholine-3-carboxylic acid]
68 | 21 |  | 62.5 | CC1(C)SCCN(S(=O)(=O)c2ccc(-c3ccccc3C=O)cc2)[C@H]1C(=O)O [Example 63, (S)-4-(2′-Formyl-biphenyl-4-sulfonyl)-2,2-dimethyl-thiomorpholine-3-carboxylic acid]
